Read-outs that look alike come from different tables or passages of the source. One block for each compound: values may come before it. Non-standard residues stand in square brackets, D forms with d. Residues, ends and D or L forms follow the SMILES beside them. *: point of attachment. Sta = CC(C)C[C@H](N)[C@@H](O)CC(=O)O; Isovaleryl = CC(C)CC(=O)*
Columns and labels:
medaka EP-2 protease = test: Inhibitor assay, enzyme activity measured using GD4K-βNA as a substrate; assay type: biochemical, medaka (Oryzias latipes)
medaka EP-1 protease = test: as above; assay type: biochemical, medaka (Oryzias latipes)
[1] = molecular target: T1, medaka EP-1 enteropeptidase serine protease domain, wild type, SEQ ID NO: 2 (Oryzias latipes, UniProt A4UWM5); test: Inhibitor assay, EP-1 protease activity on GD4K-βNA; assay type: biochemical, Japanese Medaka (Oryzias latipes); conditions: pH 7.4
T1 sequence (A4UWM5 795-1036): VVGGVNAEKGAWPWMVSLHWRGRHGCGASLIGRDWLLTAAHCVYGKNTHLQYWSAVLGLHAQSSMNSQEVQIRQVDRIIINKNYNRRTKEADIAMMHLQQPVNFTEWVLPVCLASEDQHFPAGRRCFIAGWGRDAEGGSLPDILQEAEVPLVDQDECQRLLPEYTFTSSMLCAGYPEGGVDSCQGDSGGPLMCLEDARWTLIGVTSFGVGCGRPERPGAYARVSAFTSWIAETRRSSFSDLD

[2] = molecular target: medaka EP-2 enteropeptidase serine protease domain, wild type (EP-2, SEQ ID NO: 72) (Oryzias latipes, UniProt A4UWM6); test: Inhibitor assay, EP-2 protease activity on GD4K-βNA; assay type: biochemical, Japanese Medaka (Oryzias latipes); conditions: pH 7.4
Chain of medaka EP-2 enteropeptidase serine protease domain, wild type (EP-2, SEQ ID NO: 72) (A4UWM6 802-1043): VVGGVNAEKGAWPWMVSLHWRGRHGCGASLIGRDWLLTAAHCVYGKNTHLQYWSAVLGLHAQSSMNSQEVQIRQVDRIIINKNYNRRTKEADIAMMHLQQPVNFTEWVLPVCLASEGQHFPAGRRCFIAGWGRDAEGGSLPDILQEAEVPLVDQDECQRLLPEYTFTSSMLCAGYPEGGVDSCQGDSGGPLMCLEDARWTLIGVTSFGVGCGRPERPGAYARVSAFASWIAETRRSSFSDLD

[3] = inhibitor 0.01 mg/ml, GD4K-βNA substrate, 10 min preincubation
[4] = 0.2 mM inhibitor, GD4K-βNA substrate, 10 min preincubation
[5] = inhibitor 1.0 mM, GD4K-βNA substrate, 10 min preincubation
[6] = inhibitor 0.1 mM, GD4K-βNA substrate, 10 min preincubation

Compound: CC(C)C[C@H](NC(=O)[C@@H](NC(=O)N[C@@H](Cc1ccccc1)C(=O)O)[C@@H]1CCN=C(N)N1)C(=O)N[C@H](C=O)Cc1ccccc1 [Chymostatin]
Inhibition (%) EP-2 (medaka EP-2 protease): 0%
Inhibition (%) EP-1 (medaka EP-1 protease): 0%

Compound: O=C(O)CN(CCN(CC(=O)O)CC(=O)O)CC(=O)O [EDTA]
inhibition at 5000 µM [1]: 5%
inhibition at 5000 µM [2]: 10%

Compound: CC(=O)N[C@@H](CC(C)C)C(=O)N[C@@H](CC(C)C)C(=O)N[C@H](C=O)CCCNC(=N)N [Leupeptin]
Inhibition (%) EP-2 (medaka EP-2 protease): 47%
Inhibition (%) EP-1 (medaka EP-1 protease): 43%

Results, then the compound that gave them:

Inhibition (%) EP-2 (medaka EP-2 protease; [3]): 5%
Inhibition (%) EP-1 (medaka EP-1 protease; [3]): 0%
Compound: Aprotinin

inhibition at 200 µM [1, 4]: 0%
inhibition at 200 µM [2, 4]: 0%
Compound: CC(C)C[C@H](NC(=O)[C@H]1O[C@@H]1C(=O)O)C(=O)NCCCCN=C(N)N [E-64]

Inhibition (%) EP-2 (medaka EP-2 protease; [5]): 78%
Inhibition (%) EP-1 (medaka EP-1 protease; [5]): 79%
Compound: N=C(N)c1ccccc1 [Benzamidine]

Inhibition (%) EP-2 (medaka EP-2 protease; [6]): 3%
Inhibition (%) EP-1 (medaka EP-1 protease; [6]): 0%
Compound: CC(C)CC(=O)N[C@H](C(=O)N[C@H](C(=O)N[C@@H](CC(C)C)[C@@H](O)CC(=O)N[C@@H](C)C(=O)N[C@@H](CC(C)C)[C@@H](O)CC(=O)O)C(C)C)C(C)C [Pepstatin] (Isovaleryl-VV[Sta]A[Sta]-OH)
